Results reported in patent publication US10681909B2, “Herbicidal triazoles” (FMC Corporation, priority 2014, dated 2020).

How the values were obtained:
blackgrass = assay: Test C preemergence; assay type: in vivo, Alopecurus myosuroides; conditions: for Plant response rating (scale of 0 to 100 where 0 is no effect and 100 is complete control): Blackgrass, preemergence; for Blackgrass plant response rating (0 to 100): Preemergence, visual rating after 13 to 15 d
Description: (§1) Seeds of plant species selected from blackgrass (Alopecurus myosuroides), ryegrass, Italian (Italian ryegrass, Lolium multiflorum), wheat (winter wheat, Triticum aestivum), galium (catchweed bedstraw, Galium aparine), corn (Zea mays), crabgrass, large (large crabgrass, Digitaria sanguinalis), foxtail, giant, (giant foxtail, Setaria faberii), johnsongrass (Sorghum halepense), lambsquarters (Chenopodium album), morningglory (Ipomoea coccinea), nutsedge, yellow (yellow nutsedge, Cyperus esculentus), pigweed (Amaranthus retroflexus), ragweed (common ragweed, Ambrosia elatior), soybean (Glycine max), barnyardgrass (Echinochloa crus-galli), oilseed rape (Brassica napus), waterhemp (common waterhemp, Amaranthus rudis), and velvetleaf (Abutilon theophrasti) were planted into a blend of loam soil and sand and treated preemergence with test chemicals formulated in a non-phytotoxic solvent mixture which included a surfactant. At the same time, plants selected from these crop and weed species and also chickweed (common chickweed, Stellaria media), oat, wild (wild oat, Avena fatua), and kochia (Kochia scoparia), were planted in pots containing Sunshine Redi-Earth® planting medium comprising spaghnum peat moss, vermiculite, starter nutrients and dolomitic limestone and treated with postemergence applications of test chemicals formulated in the same manner. Plants ranged in height from 2 to 18 cm (1- to 4-leaf stage) for postemergence treatments. […] A dash (-) response means no test result.

waterhemp = assay: Test C preemergence; assay type: in vivo, Amaranthus rudis; conditions: for Waterhemp plant response rating (0 to 100): Preemergence, visual rating after 13 to 15 d
Description: as §1

oilseed rape [1] = assay: Test D preemergence; assay type: in vivo, Brassica napus; conditions: for Plant response rating: Oilseed Rape: scale 0 to 100
Description: (§2) Seeds of plant species selected from bluegrass (annual bluegrass, Poa annua), blackgrass (Alopecurus myosuroides), canarygrass (Phalaris minor), chickweed (common chickweed, Stellaria media), galium (catchweed bedstraw, Galium aparine), bromegrass, down (downy bromegrass, Bromus tectorum), Russian thistle (Salsola kali), field poppy (Papaver rhoeas), field violet (Viola arvensis), foxtail, green (green foxtail, Setaria viridis), deadnettle (henbit deadnettle, Lamium amplexicaule), ryegrass, Ital. (Italian ryegrass, Lolium multiflorum), kochia (Kochia scoparia), lambsquarters (Chenopodium album), oilseed rape (Brassica napus), pigweed (Amaranthus retroflexus), chamomile (scentless chamomile, Matricaria inodora), speedwell (bird's-eye speedwell, Veronica persica), barley, spring (spring barley, Hordeum vulgare), wheat, spring (spring wheat, Triticum aestivum), buckwheat, wild (wild buckwheat, Polygonum convolvulus), wild mustard (Sinapis arvensis), oat, wild (wild oat, Avena fatua), radish, wild (wild radish, Raphanus raphanistrum), […]), barley, winter (winter barley, Hordeum vulgare), and wheat, winter (winter wheat, Triticum aestivum) were planted into a silt loam soil and treated preemergence with test chemicals formulated in a non-phytotoxic solvent mixture which included a surfactant. At the same time, these species were planted in pots containing Sunshine Redi-Earth® planting medium comprising spaghnum peat moss, vermiculite, starter nutrients and dolomitic limestone and treated with postemergence applications of the test chemicals formulated in the same manner. Plants ranged in height from 2 to 18 cm (1- to 4-leaf stage). Treated plants and controls were maintained in a controlled growth environment for 14 to 21 d after which time all species were compared to controls and visually evaluated. […] A dash (-) response means no test result.

pigweed = assay: Test D preemergence; assay type: in vivo, Amaranthus retroflexus; conditions: for Plant response rating: Pigweed: scale 0 to 100
Description: as §2

buckwheat, wild [2] = assay: Test D preemergence; assay type: in vivo, Polygonum convolvulus; conditions: for Plant response rating: Buckwheat, Wild: scale 0 to 100
Description: as §2

bluegrass = assay: Test D postemergence; assay type: in vivo, Poa annua; conditions: scale 0 to 100
Description: as §2

bromegrass, down = assay: Test D postemergence; assay type: in vivo, Bromus tectorum; conditions: scale 0 to 100
Description: as §2

field violet = assay: Test D postemergence; assay type: in vivo, Viola arvensis; conditions: scale 0 to 100
Description: as §2

kochia = assay: Test D postemergence; assay type: in vivo, Kochia scoparia; conditions: scale 0 to 100
Description: as §2

oilseed rape [3] = assay: Test D postemergence; assay type: in vivo, Brassica napus; conditions: scale 0 to 100
Description: as §2

buckwheat, wild [4] = assay: Test D postemergence; assay type: in vivo, Polygonum convolvulus; conditions: scale 0 to 100
Description: as §2

crabgrass, large = assay: Test A postemergence; assay type: in vivo, Digitaria sanguinalis; conditions: Digitaria sanguinalis, post-emergence, 240 h, 0 to 100 scale (0 no effect, 100 complete control), approx. 10 d, read-out: Plant response rating, Crabgrass, Large
Procedure, shortened: (§3)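 Plant seeds in loam soil blended with sand, then apply test chemical preemergence as a directed soil spray; in parallel, spray potted seedlings (one- to two-leaf, 2 to 10 cm) postemergence. Both treatments use a non-phytotoxic solvent mixture with surfactant.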

morningglory = assay: Test A postemergence; assay type: in vivo, Ipomoea spp.; conditions: Ipomoea, post-emergence, 240 h, 0 to 100 scale (0 no effect, 100 complete control), approx. 10 d, read-out: Plant response rating, Morningglory
Procedure, shortened: as §3

[5] = 16 g ai/ha, 0 is no effect, 100 is complete control

With CCOc1nc(-c2ccc(C(F)(F)F)cc2)nn1Cc1ccnc(C(F)(F)F)c1 [Compound 35, 4-[[5-ethoxy-3-[4-(trifluoromethyl)phenyl]-1H-1,2,4-triazole-1-yl]methyl]-2-(trifluoromethyl)pyridine] the “Plant response rating (scale of 0 to 100 where 0 is no effect and 100 is complete control)” value (blackgrass; 125 g ai/ha) was 90, the “Plant response rating (scale of 0 to 100 where 0 is no effect and 100 is complete control)” value (blackgrass; 250 g ai/ha) was 90 and the “Blackgrass plant response rating (0 to 100)” value (blackgrass; 31 g ai/ha) was 90. The “Blackgrass plant response rating (0 to 100)” value (blackgrass; 62 g ai/ha) was 85, the “Waterhemp plant response rating (0 to 100)” value (waterhemp; 31 g ai/ha) was 100 and the “Waterhemp plant response rating (0 to 100)” value (waterhemp; 62 g ai/ha) was 100. The “Plant response rating (scale of 0 to 100 where 0 is no effect and 100 is complete control)” value (waterhemp; Waterhemp, preemergence, 250 g ai/ha) was 100, the “Plant response rating (0 to 100), Oilseed Rape” value (oilseed rape [1]; [5]) was 25 and the “Plant response rating: Oilseed Rape” value (oilseed rape [1]; 62 g ai/ha) was 40. For the same compound, the “Plant response rating: Oilseed Rape” value (oilseed rape [1]; 125 g ai/ha) was 100, the “Plant response rating (0 to 100), Pigweed” value (pigweed; [5]) was 100 and the “Plant response rating: Pigweed” value (pigweed; 62 g ai/ha) was 100. For the same compound, the “Plant response rating: Pigweed” value (pigweed; 125 g ai/ha) was 100, the “Plant response rating (0 to 100), Buckwheat, Wild” value (buckwheat, wild [2]; [5]) was 65 and the “Plant response rating: Buckwheat, Wild” value (buckwheat, wild [2]; 31 g ai/ha) was 70. For the same compound, the “Plant response rating: Buckwheat, Wild” value (buckwheat, wild [2]; 62 g ai/ha) was 70, the “Plant response rating: Buckwheat, Wild” value (buckwheat, wild [2]; 125 g ai/ha) was 95 and the “Plant response rating: Bluegrass” value (bluegrass; 16 g ai/ha) was 45. The “Plant response rating: Bluegrass” value (bluegrass; 31 g ai/ha) was 70, the “Plant response rating: Bluegrass” value (bluegrass; 62 g ai/ha) was 75 and the “Plant response rating: Bluegrass” value (bluegrass; 125 g ai/ha) was 95. The “Plant response rating: Bromegrass, Down” value (bromegrass, down; 16 g ai/ha) was 40, the “Plant response rating: Bromegrass, Down” value (bromegrass, down; 31 g ai/ha) was 55 and the “Plant response rating: Bromegrass, Down” value (bromegrass, down; 62 g ai/ha) was 60. The “Plant response rating: Bromegrass, Down” value (bromegrass, down; 125 g ai/ha) was 75, the “Plant response rating: Field Violet” value (field violet; 16 g ai/ha) was 90 and the “Plant response rating: Field Violet” value (field violet; 31 g ai/ha) was 100. For the same compound, the “Plant response rating: Field Violet” value (field violet; 62 g ai/ha) was 100, the “Plant response rating: Field Violet” value (field violet; 125 g ai/ha) was 100 and the “Plant response rating: Kochia” value (kochia; 16 g ai/ha) was 90. The “Plant response rating: Kochia” value (kochia; 31 g ai/ha) was 90, the “Plant response rating: Kochia” value (kochia; 62 g ai/ha) was 90 and the “Plant response rating: Kochia” value (kochia; 125 g ai/ha) was 90. The “Plant response rating: Oilseed Rape” value (oilseed rape [3]; 16 g ai/ha) was 80, the “Plant response rating: Oilseed Rape” value (oilseed rape [3]; 31 g ai/ha) was 90 and the “Plant response rating: Oilseed Rape” value (oilseed rape [3]; 62 g ai/ha) was 100. The “Plant response rating: Oilseed Rape” value (oilseed rape [3]; 125 g ai/ha) was 100, the “Plant response rating: Buckwheat, Wild” value (buckwheat, wild [4]; 16 g ai/ha) was 65 and the “Plant response rating: Buckwheat, Wild” value (buckwheat, wild [4]; 31 g ai/ha) was 70. The “Plant response rating: Buckwheat, Wild” value (buckwheat, wild [4]; 62 g ai/ha) was 70 and the “Plant response rating: Buckwheat, Wild” value (buckwheat, wild [4]; 125 g ai/ha) was 95.
For CCc1nc(-c2ccc(C(F)(F)F)cc2)nn1Cc1ccnc(C(F)(F)F)c1 [Compound 1, 4-[[5-ethyl-3-[4-(trifluoromethyl)phenyl]-1H-1,2,4-triazol-1-yl]methyl]-2-(trifluoromethyl)pyridine], the pest or weed control at 125 g/ha (crabgrass, large; 125 g ai/ha) was 100%, the pest or weed control at 500 g/ha (crabgrass, large; 500 g ai/ha) was 100% and the pest or weed control at 125 g/ha (morningglory; 125 g ai/ha) was 90%. The pest or weed control at 500 g/ha (morningglory; 500 g ai/ha) was 100%, the “Plant response rating (scale of 0 to 100 where 0 is no effect and 100 is complete control)” value (blackgrass; 125 g ai/ha) was 80 and the “Plant response rating (scale of 0 to 100 where 0 is no effect and 100 is complete control)” value (blackgrass; 250 g ai/ha) was 85. The “Blackgrass plant response rating (0 to 100)” value (blackgrass; 31 g ai/ha) was 5, the “Blackgrass plant response rating (0 to 100)” value (blackgrass; 62 g ai/ha) was 75 and the “Plant response rating: Oilseed Rape” value (oilseed rape [1]; 62 g ai/ha) was 100. For the same compound, the “Plant response rating: Oilseed Rape” value (oilseed rape [1]; 125 g ai/ha) was 100, the “Plant response rating: Oilseed Rape” value (oilseed rape [1]; 250 g ai/ha) was 100 and the “Plant response rating: Pigweed” value (pigweed; 62 g ai/ha) was 100. For the same compound, the “Plant response rating: Pigweed” value (pigweed; 125 g ai/ha) was 100, the “Plant response rating: Pigweed” value (pigweed; 250 g ai/ha) was 100 and the “Plant response rating: Buckwheat, Wild” value (buckwheat, wild [2]; 31 g ai/ha) was 60. The “Plant response rating: Buckwheat, Wild” value (buckwheat, wild [2]; 62 g ai/ha) was 70, the “Plant response rating: Buckwheat, Wild” value (buckwheat, wild [2]; 125 g ai/ha) was 65 and the “Plant response rating: Buckwheat, Wild” value (buckwheat, wild [2]; 250 g ai/ha) was 100. The “Plant response rating: Bluegrass” value (bluegrass; 31 g ai/ha) was 10, the “Plant response rating: Bluegrass” value (bluegrass; 62 g ai/ha) was 20 and the “Plant response rating: Bluegrass” value (bluegrass; 125 g ai/ha) was 35. For the same compound, the “Plant response rating: Bluegrass” value (bluegrass; 250 g ai/ha) was 55, the “Plant response rating: Bromegrass, Down” value (bromegrass, down; 31 g ai/ha) was 15 and the “Plant response rating: Bromegrass, Down” value (bromegrass, down; 62 g ai/ha) was 20. For the same compound, the “Plant response rating: Bromegrass, Down” value (bromegrass, down; 125 g ai/ha) was 25, the “Plant response rating: Bromegrass, Down” value (bromegrass, down; 250 g ai/ha) was 35 and the “Plant response rating: Field Violet” value (field violet; 31 g ai/ha) was 100. For the same compound, the “Plant response rating: Field Violet” value (field violet; 62 g ai/ha) was 100, the “Plant response rating: Field Violet” value (field violet; 125 g ai/ha) was 100 and the “Plant response rating: Field Violet” value (field violet; 250 g ai/ha) was 100. The “Plant response rating: Kochia” value (kochia; 31 g ai/ha) was 65, the “Plant response rating: Kochia” value (kochia; 62 g ai/ha) was 75 and the “Plant response rating: Kochia” value (kochia; 125 g ai/ha) was 80. For the same compound, the “Plant response rating: Kochia” value (kochia; 250 g ai/ha) was 80, the “Plant response rating: Oilseed Rape” value (oilseed rape [3]; 31 g ai/ha) was 70 and the “Plant response rating: Oilseed Rape” value (oilseed rape [3]; 62 g ai/ha) was 80. For the same compound, the “Plant response rating: Oilseed Rape” value (oilseed rape [3]; 125 g ai/ha) was 100, the “Plant response rating: Oilseed Rape” value (oilseed rape [3]; 250 g ai/ha) was 100 and the “Plant response rating: Buckwheat, Wild” value (buckwheat, wild [4]; 31 g ai/ha) was 60. The “Plant response rating: Buckwheat, Wild” value (buckwheat, wild [4]; 62 g ai/ha) was 80, the “Plant response rating: Buckwheat, Wild” value (buckwheat, wild [4]; 125 g ai/ha) was 100 and the “Plant response rating: Buckwheat, Wild” value (buckwheat, wild [4]; 250 g ai/ha) was 100.
